We go through 34 compounds from patent US10377753B2, “Substituted 4-azaindoles and their use as GluN2B receptor modulators” (Janssen Pharmaceutica NV, priority 2015, dated 2019).

Structures can show the parent of a compound that is named as a salt.

Sequence of cloned human NR1/NR2B ion channels (Q13224 27-1484, other chains not shown): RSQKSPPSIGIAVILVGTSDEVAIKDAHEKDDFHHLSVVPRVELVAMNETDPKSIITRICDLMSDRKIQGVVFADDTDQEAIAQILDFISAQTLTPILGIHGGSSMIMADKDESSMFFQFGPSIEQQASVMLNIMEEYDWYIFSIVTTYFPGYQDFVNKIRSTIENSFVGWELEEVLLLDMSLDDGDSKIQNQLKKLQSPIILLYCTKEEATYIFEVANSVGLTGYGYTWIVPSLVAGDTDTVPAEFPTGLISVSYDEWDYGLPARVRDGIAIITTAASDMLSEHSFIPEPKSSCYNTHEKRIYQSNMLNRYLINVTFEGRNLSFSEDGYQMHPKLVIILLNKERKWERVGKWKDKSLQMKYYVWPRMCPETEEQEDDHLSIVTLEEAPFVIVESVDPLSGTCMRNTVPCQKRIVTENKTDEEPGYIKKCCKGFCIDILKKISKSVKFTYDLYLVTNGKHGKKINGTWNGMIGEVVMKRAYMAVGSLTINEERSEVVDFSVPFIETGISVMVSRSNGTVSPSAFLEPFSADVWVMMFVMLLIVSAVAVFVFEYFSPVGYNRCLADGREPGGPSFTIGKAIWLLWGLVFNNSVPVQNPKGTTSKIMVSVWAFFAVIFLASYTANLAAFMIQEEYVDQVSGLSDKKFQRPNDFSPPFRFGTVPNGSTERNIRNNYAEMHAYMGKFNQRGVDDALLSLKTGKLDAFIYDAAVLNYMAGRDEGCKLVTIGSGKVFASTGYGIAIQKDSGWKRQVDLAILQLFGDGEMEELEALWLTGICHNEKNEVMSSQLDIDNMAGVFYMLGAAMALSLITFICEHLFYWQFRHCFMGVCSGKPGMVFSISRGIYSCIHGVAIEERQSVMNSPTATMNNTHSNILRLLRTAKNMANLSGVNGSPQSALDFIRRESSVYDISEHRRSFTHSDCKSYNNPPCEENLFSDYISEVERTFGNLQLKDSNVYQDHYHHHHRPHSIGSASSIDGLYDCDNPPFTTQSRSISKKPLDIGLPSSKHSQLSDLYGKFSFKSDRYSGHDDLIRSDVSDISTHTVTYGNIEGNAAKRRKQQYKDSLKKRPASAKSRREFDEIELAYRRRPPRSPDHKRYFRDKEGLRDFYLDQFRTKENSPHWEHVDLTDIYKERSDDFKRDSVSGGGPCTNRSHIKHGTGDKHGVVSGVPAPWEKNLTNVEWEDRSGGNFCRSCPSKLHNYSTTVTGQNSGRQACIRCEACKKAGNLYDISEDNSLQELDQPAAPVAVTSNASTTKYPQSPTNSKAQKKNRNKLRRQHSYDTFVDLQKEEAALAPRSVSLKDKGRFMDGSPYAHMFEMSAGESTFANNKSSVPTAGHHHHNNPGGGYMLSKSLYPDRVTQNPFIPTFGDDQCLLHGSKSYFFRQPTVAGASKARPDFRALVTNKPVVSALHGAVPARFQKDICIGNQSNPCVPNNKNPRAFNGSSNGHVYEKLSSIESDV

The assay has as its target cloned human NR1/NR2B ion channels (Homo sapiens (Human), UniProt Q05586+Q13224). The assay can be described thus: HNR2BC: effects of test articles on cloned human NR1/NR2B ion channels expressed in mammalian cells (FLIPR calcium flux). Type of assay: cell-based. The settings on record: cloned human NR1/NR2B, Table 5. As to the method: HNR2BC: Effects of Test Articles on Cloned Human NR1/NR2B Ion Channels Expressed in Mammalian Cells
NMDA receptors are ion channels that are highly permeable to Ca^2+ ions, rendering it possible to monitor NMDA receptor function using cell-based calcium flux assay. In this assay, co-agonists glutamate and glycine are added to cells heterologously expressing human GluN1/GluN2B NMDA receptors to initiate cellular Ca^2+ influx. The time course of the changes in intracellular calcium is measured using a fluorescent dye and a FLIPR (Fluorometric Imaging Plate Reader) device.
Twenty four hours before measurements, the expression of the NMDA receptors in the stable cell line is induced with Tet-On inducible system in the presence of a non-selective NMDA receptor blocker. On the day of the experiment, cell culture media is carefully washed and the cells are loaded with Calcium 5 Dye Kit (Molecular Devices) in dye loading buffer containing 137 mM NaCl, 4 mM KCl, 2 mM CaCl2, 0.5 mM MgCl2, 10 mM HEPES and 5 mM D-glucose; pH 7.4. After 1 h incubation at the room temperature, the dye is washed away with the assay buffer (137 mM NaCl, 4 mM KCl, 2 mM CaCl2, 0.01 mM EDTA, 10 mM HEPES and 5 mM D-glucose; pH 7.4) In the FLIPR TETRA reader, various concentrations of the test compounds are added to the cells for 5 min while fluorescence is monitored to detect potential agonist activity. Next, co-agonists, glutamate and glycine are added for another 5 minutes. The concentration of glutamate corresponding to ˜EC80 is used to maximize the assay's signal window and ability to detect NMDA receptor antagonists and negative allosteric modulators. A saturating concentration (10 μM) of glycine is also present in the assay. […] The fluorescent signal in the presence of test compounds is quantified and normalized to the signal defined by the appropriate control wells.
A word on the IC50: it is the concentration that gives 50% inhibition. Take `Cc1cc(-c2cnc3ccn(CC4CO4)c3c2)ccc1F` (racemic) [Example 180, (R/S)-6-(4-Fluoro-3-methyl-phenyl)-1-(oxiran-2-ylmethyl)pyrrolo[3,2-b]pyridine trifluoroacetate salt]: the IC50 is 794 nM.

With `Cc1cc(-c2cnc3ccn(CC4CCO4)c3c2)ccc1F` (racemic) [Example 184, (R/S)-6-(4-Fluoro-3-methyl-phenyl)-1-(oxetan-2-ylmethyl)pyrrolo[3,2-b]pyridine trifluoroacetate salt], the IC50 was 501 nM. Still for that read-out and setting: as for `Cc1cc(-c2cnc3ccn(CC(=O)N4CC5CC5C4)c3c2)ccc1F` (racemic) [Example 189, (R/S)-1-(3-Azabicyclo[3.1.0]hexan-3-yl)-2-[6-(4-fluoro-3-methyl-phenyl)pyrrolo[3,2-b]pyridin-1-yl]ethanone trifluoroacetate salt], the figure is 126 nM. Regarding `Cc1cc(-c2cnc3ccn(CC(=O)N4CCOC(C)C4)c3c2)ccc1F` (racemic) [Example 194, (R/S)-2-[6-(4-Fluoro-3-methyl-phenyl)pyrrolo[3,2-b]pyridin-1-yl]-1-(2-methylmorpholin-4-yl)ethanone trifluoroacetate salt], the IC50 was 158 nM. Same read-out and setting: for `Cc1cc(-c2cnc3ccn(CC(=O)N4CCCC(C(F)(F)F)C4)c3c2)ccc1F` (racemic) [Example 195, (R/S)-2-[6-(4-Fluoro-3-methyl-phenyl)pyrrolo[3,2-b]pyridin-1-yl]-1-[3-(trifluoromethyl)-1-piperidyl]ethanone trifluoroacetate salt] the value was 398 nM.

Take `CCC1CCCN1C(=O)Cn1ccc2ncc(-c3ccc(F)c(C)c3)cc21` (racemic) [Example 196, (R/S)-1-(2-Ethylpyrrolidin-1-yl)-2-[6-(4-fluoro-3-methyl-phenyl)pyrrolo[3,2-b]pyridin-1-yl]ethanone trifluoroacetate salt]: the IC50 is 1260 nM. Same read-out and setting: as for `COC1CCN(C(=O)Cn2ccc3ncc(-c4ccc(F)c(C)c4)cc32)C1` (racemic) [Example 198, (R/S)-2-[6-(4-Fluoro-3-methyl-phenyl)pyrrolo[3,2-b]pyridin-1-yl]-1-(3-methoxypyrrolidin-1-yl)ethanone trifluoroacetate salt], the figure is 1000 nM; as for `Cc1cc(-c2cnc3ccn(CC(=O)N4CCCC(F)C4)c3c2)ccc1F` (racemic) [Example 199, (R/S)-2-[6-(4-Fluoro-3-methyl-phenyl)pyrrolo[3,2-b]pyridin-1-yl]-1-(3-fluoro-1-piperidyl)ethanone trifluoroacetate salt], 200 nM.

For `Cc1cc(-c2cnc3ccn(CC(=O)N4CCOCC4C)c3c2)ccc1F` (racemic) [Example 210, (R/S)-2-[6-(4-Fluoro-3-methyl-phenyl)pyrrolo[3,2-b]pyridin-1-yl]-1-(3-methylmorpholin-4-yl)ethanone trifluoroacetate salt], the IC50 was 398 nM. The same measure, in the same setting: for `O=C(Cn1ccc2ncc(-c3ccc(F)cc3)cc21)N1CCC(O)C1` (racemic) [Example 218, (R/S)-2-[6-(4-Fluorophenyl)pyrrolo[3,2-b]pyridin-1-yl]-1-(3-hydroxypyrrolidin-1-yl)ethanone] the value was 398 nM. `Fc1ccc(-c2cnc3ccn(CC4CCCCO4)c3c2)cc1` (racemic) [Example 228, (R/S)-6-(4-Fluorophenyl)-1-(tetrahydropyran-2-ylmethyl)pyrrolo[3,2-b]pyridine trifluoroacetate salt]: the IC50 is 631 nM. For `CC(NC(=O)Cn1ccc2ncc(-c3ccc(F)cc3)cc21)C(F)(F)F` (racemic) [Example 231, (R/S)-2-[6-(4-Fluorophenyl)pyrrolo[3,2-b]pyridin-1-yl]-N-(2,2,2-trifluoro-1-methyl-ethyl)acetamide], the IC50 was 2000 nM. `CC(C)C(O)Cn1ccc2ncc(-c3cc(F)cc(F)c3)cc21` (racemic) [Example 272]: the IC50 was 25.1 nM. Still for that read-out and setting: for `Cc1cc(-c2cnc3ccn(CC(C)(O)C4CC4)c3c2)ccc1F` (racemic) [Example 275, (R/S)-2-Cyclopropyl-1-[6-(4-fluoro-3-methyl-phenyl)pyrrolo[3,2-b]pyridin-1-yl]propan-2-ol trifluoroacetate salt] the value was 158 nM; for `Cc1cc(-c2cnc3ccn(CC(F)C4CC4)c3c2)ccc1F` (racemic) [Example 289, (R/S)-1-(2-Cyclopropyl-2-fluoro-ethyl)-6-(4-fluoro-3-methyl-phenyl)pyrrolo[3,2-b]pyridine], 79.4 nM. On the same count and under the same terms, as for `Cc1cc(-c2cnc3ccn(C[S+](C)[O-])c3c2)ccc1F` (racemic) [Example 331, (R/S)-6-(4-Fluoro-3-methyl-phenyl)-1-(methylsulfinylmethyl)pyrrolo[3,2-b]pyridine], the figure is 3980 nM.

As to `O=C(Cn1ccc2ncc(-c3ccc(F)cc3)cc21)N1CC[C@H](F)C1` (single isomer, unassigned) [Example 293, trifluoroacetate salt], the IC50 was 31.6 nM. `O=C(Cn1cc(Cl)c2ncc(-c3ccccc3)cc21)NC1CC1` [Example 1, 2-(3-Chloro-6-phenyl-pyrrolo[3,2-b]pyridin-1-yl)-N-cyclopropyl-acetamide]: the IC50 is 316 nM.

Turning to `O=C(Cn1cc(Cl)c2ncc(-c3ccc(F)cc3)cc21)NC1CC1` [Example 2, 2-[3-Chloro-6-(4-fluorophenyl)pyrrolo[3,2-b]pyridin-1-yl]-N-cyclopropyl-acetamide], the IC50 was 126 nM.

The pIC50 is the negative decadic logarithm of the IC50, by convention in mol/L. For `O=C(Cn1cc(Cl)c2ncc(-c3ccc(F)cc3)cc21)N1CCC1` [Example 3, 1-(Azetidin-1-yl)-2-[3-chloro-6-(4-fluorophenyl)pyrrolo[3,2-b]pyridin-1-yl]ethanone], the pIC50 was found to be 7.6. For `O=C(Cn1cc(Cl)c2ncc(-c3ccccc3)cc21)N1CCCC1` [Example 4, 2-(3-Chloro-6-phenyl-pyrrolo[3,2-b]pyridin-1-yl)-1-pyrrolidin-1-yl-ethanone], the IC50 is 50.1 nM. The same measure, in the same setting: for `O=C(Cn1cc(Cl)c2ncc(-c3ccccc3)cc21)N1CCOCC1` [Example 5, 2-(3-Chloro-6-phenyl-pyrrolo[3,2-b]pyridin-1-yl)-1-morpholino-ethanone] the value was 200 nM; for `O=C(Cn1cc(Cl)c2ncc(-c3ccccc3)cc21)N1CCC1` [Example 6, 1-(Azetidin-1-yl)-2-(3-chloro-6-phenyl-pyrrolo[3,2-b]pyridin-1-yl)ethanone], 50.1 nM.

For the compound `O=C(Cn1cc(Cl)c2ncc(-c3ccc(F)cc3)cc21)N1CCOCC1` [Example 7, 2-[3-Chloro-6-(4-fluorophenyl)pyrrolo[3,2-b]pyridin-1-yl]-1-morpholino-ethanone], the IC50 is 158 nM. Still for that read-out and setting: for `Cc1cccc(-c2cnc3c(Cl)cn(CC(=O)N4CCC4)c3c2)c1` [Example 8, 1-(Azetidin-1-yl)-2-[3-chloro-6-(m-tolyl)pyrrolo[3,2-b]pyridin-1-yl]ethanone] the value was 31.6 nM; for `O=C(Cn1cc(Cl)c2ncc(-c3ccc(F)cc3)cc21)N1CCCC1` [Example 9, 2-[3-Chloro-6-(4-fluorophenyl)pyrrolo[3,2-b]pyridin-1-yl]-1-pyrrolidin-1-yl-ethanone], 63.1 nM.

On to `Cc1cccc(-c2cnc3c(Cl)cn(CC(=O)NC4CC4)c3c2)c1` [Example 10, 2-[3-Chloro-6-(m-tolyl)pyrrolo[3,2-b]pyridin-1-yl]-N-cyclopropyl-acetamide], for which the IC50 is 50.1 nM. Still for that read-out and setting: for `O=C(Cn1cc(Br)c2ncc(-c3ccccc3)cc21)N1CCC1` [Example 11, 1-(Azetidin-1-yl)-2-(3-bromo-6-phenyl-pyrrolo[3,2-b]pyridin-1-yl)ethanone] the value was 25.1 nM; for `Cc1cccc(-c2cnc3c(Cl)cn(CC(=O)N4CCCC4)c3c2)c1` [Example 12, 2-[3-Chloro-6-(m-tolyl)pyrrolo[3,2-b]pyridin-1-yl]-1-pyrrolidin-1-yl-ethanone], 39.8 nM.

`Cc1cccc(-c2cnc3c(Cl)cn(CC(=O)N4CCOCC4)c3c2)c1` [Example 13, 2-[3-Chloro-6-(m-tolyl)pyrrolo[3,2-b]pyridin-1-yl]-1-morpholino-ethanone]: the IC50 was 50.1 nM. Same read-out and setting: as for `O=C(Cn1cc(Br)c2ncc(-c3ccccc3)cc21)NC1CC1` [Example 14, 2-(3-Bromo-6-phenyl-pyrrolo[3,2-b]pyridin-1-yl)-N-cyclopropyl-acetamide], the figure is 126 nM; as for `O=C(Cn1cc(Br)c2ncc(-c3ccccc3)cc21)N1CCCC1` [Example 15, 2-(3-Bromo-6-phenyl-pyrrolo[3,2-b]pyridin-1-yl)-1-pyrrolidin-1-yl-ethanone], 39.8 nM. On the same count and under the same terms, for `O=C(Cn1cc(Br)c2ncc(-c3ccccc3)cc21)N1CCOCC1` [Example 16, 2-(3-Bromo-6-phenyl-pyrrolo[3,2-b]pyridin-1-yl)-1-morpholino-ethanone] the value was 79.4 nM; for `O=C(Cn1cc(Br)c2ncc(-c3ccc(F)cc3)cc21)NC1CC1` [Example 17, 2-[3-Bromo-6-(4-fluorophenyl)pyrrolo[3,2-b]pyridin-1-yl]-N-cyclopropyl-acetamide], 50.1 nM.
